Measurements published in the NIST ThermoML archive (doi:10.1021/je2002495).
Numbers after ± are expanded uncertainties.

Assays:
[1] = Liquid; for mass density: 298.15 K, 101.33 kPa, Pycnometric method
[2] = excess molar enthalpy (molar enthalpy of mixing); xn = mol fraction of the nth substance listed; conditions: 298.15 K, 101 kPa, Liquid, Calvet calorimetry

Work on `c1ccncc1` [pyridine] yielded a mass density [1] of 981.3 ± 0.9 kg/m3 and a Normal boiling temperature ([1]; Distillation) of 114.8 ± 1.1 °C.

Work on `O` [water] yielded a mass density [1] of 996.5 ± 0.9 kg/m3.

With `c1ccncc1` [pyridine] + O the excess molar enthalpy ([2]; x1 = 0.095) was -0.0945 ± 0.00574 kcal/mol, the excess molar enthalpy ([2]; x1 = 0.199) was -0.207 ± 0.0124 kcal/mol and the excess molar enthalpy ([2]; x1 = 0.298) was -0.261 ± 0.0158 kcal/mol. For the same compound, the excess molar enthalpy ([2]; x1 = 0.403) was -0.294 ± 0.0177 kcal/mol, the excess molar enthalpy ([2]; x1 = 0.505) was -0.306 ± 0.0184 kcal/mol and the excess molar enthalpy ([2]; x1 = 0.601) was -0.295 ± 0.0179 kcal/mol. The excess molar enthalpy ([2]; x1 = 0.703) was -0.27 ± 0.0163 kcal/mol, the excess molar enthalpy ([2]; x1 = 0.807) was -0.208 ± 0.0127 kcal/mol and the excess molar enthalpy ([2]; x1 = 0.904) was -0.0813 ± 0.00502 kcal/mol.
